From ChEMBL document CHEMBL5465560, “Selectivity Literature for EUbOPEN Chemogenomic Library” (2024)

Columns and labels:
[1] = molecular target: Eukaryotic translation initiation factor 2-alpha kinase 1 (Homo sapiens) (UniProt Q9BQI3); conditions: at 10 µM
[2] = molecular target: Non-receptor tyrosine-protein kinase TYK2 (Homo sapiens, UniProt P29597); test: Selectivity interaction (KinomeScan (DiscoverX)) EUB0001049a TYK2; conditions: at 1 µM
[3] = molecular target: Mitogen-activated protein kinase kinase kinase 9 (Homo sapiens) (UniProt P80192); test: Selectivity interaction (KinomeScan (DiscoverX)) EUB0001049a MAP3K9; conditions: at 1 µM
[4] = molecular target: Serine/threonine-protein kinase MARK2 (Homo sapiens) (UniProt Q7KZI7); test: Selectivity interaction (ActivX KiNativ screen (kinase selectivity in THP-1 cell lysates)) EUB0000639a MARK2; assay type: subcellular; conditions: lysate, at 0.04 µM
[5] = molecular target: Serine/threonine-protein kinase SMG1 (Homo sapiens) (UniProt Q96Q15); test: Selectivity interaction (ActivX KiNativ screen (kinase selectivity in THP-1 cell lysates)) EUB0000639a SMG1; assay type: subcellular; conditions: lysate, at 1 µM
[6] = molecular target: Interferon-induced, double-stranded RNA-activated protein kinase (Homo sapiens) (UniProt P19525); test: Selectivity interaction (KinomeScan (DiscoverX)) EUB0000695a EIF2AK2; conditions: at 100 nM
[7] = molecular target: T1, Dual specificity mitogen-activated protein kinase kinase 6 (Homo sapiens) (UniProt P52564); test: Selectivity interaction (KinomeScan (DiscoverX)) EUB0001079a MAP2K6; conditions: at 1 µM
T1 sequence (whole entry): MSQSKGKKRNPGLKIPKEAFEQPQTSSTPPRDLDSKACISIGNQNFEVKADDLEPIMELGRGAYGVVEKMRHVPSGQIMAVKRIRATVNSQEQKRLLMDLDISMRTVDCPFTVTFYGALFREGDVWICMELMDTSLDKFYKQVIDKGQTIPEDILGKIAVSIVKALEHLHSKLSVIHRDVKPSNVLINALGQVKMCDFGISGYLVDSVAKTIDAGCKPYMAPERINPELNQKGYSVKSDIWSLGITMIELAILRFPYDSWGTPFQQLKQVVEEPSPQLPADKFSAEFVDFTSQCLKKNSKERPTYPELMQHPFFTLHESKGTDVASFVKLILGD

[8] = molecular target: MAP kinase-interacting serine/threonine-protein kinase 2 (Homo sapiens, UniProt Q9HBH9); test: Selectivity interaction (KinomeScan (DiscoverX)) EUB0000092b MKNK2; conditions: at 10 µM
[9] = molecular target: Tyrosine-protein kinase SYK (Homo sapiens, UniProt P43405); test: Selectivity interaction (KinomeScan (DiscoverX)) EUB0000655a SYK; conditions: at 10 µM
[10] = molecular target: Tyrosine-protein kinase Fer (Homo sapiens) (UniProt P16591); test: Selectivity interaction (ActivX KiNativ screen (ex vivo kinase selectivity in human PBMCs)) EUB0001619a FER; assay type: cell-based; conditions: PBMC, at 1 µM
[11] = molecular target: T2, Insulin-like growth factor 1 receptor (Homo sapiens, UniProt P08069); test: Selectivity interaction (KinomeScan (DiscoverX)) EUB0000618a IGF1R; conditions: at 10 µM
[12] = molecular target: T2, Insulin-like growth factor 1 receptor; test: Selectivity interaction (SelectScreen profiling (Invitrogen)) EUB0000607a IGF1R; conditions: at 2 µM
[13] = molecular target: T3, Ephrin type-A receptor 3 (Homo sapiens) (UniProt P29320); test: Selectivity interaction (KinomeScan (DiscoverX)) EUB0000607a EPHA3; conditions: at 10 µM
T3 sequence (whole entry): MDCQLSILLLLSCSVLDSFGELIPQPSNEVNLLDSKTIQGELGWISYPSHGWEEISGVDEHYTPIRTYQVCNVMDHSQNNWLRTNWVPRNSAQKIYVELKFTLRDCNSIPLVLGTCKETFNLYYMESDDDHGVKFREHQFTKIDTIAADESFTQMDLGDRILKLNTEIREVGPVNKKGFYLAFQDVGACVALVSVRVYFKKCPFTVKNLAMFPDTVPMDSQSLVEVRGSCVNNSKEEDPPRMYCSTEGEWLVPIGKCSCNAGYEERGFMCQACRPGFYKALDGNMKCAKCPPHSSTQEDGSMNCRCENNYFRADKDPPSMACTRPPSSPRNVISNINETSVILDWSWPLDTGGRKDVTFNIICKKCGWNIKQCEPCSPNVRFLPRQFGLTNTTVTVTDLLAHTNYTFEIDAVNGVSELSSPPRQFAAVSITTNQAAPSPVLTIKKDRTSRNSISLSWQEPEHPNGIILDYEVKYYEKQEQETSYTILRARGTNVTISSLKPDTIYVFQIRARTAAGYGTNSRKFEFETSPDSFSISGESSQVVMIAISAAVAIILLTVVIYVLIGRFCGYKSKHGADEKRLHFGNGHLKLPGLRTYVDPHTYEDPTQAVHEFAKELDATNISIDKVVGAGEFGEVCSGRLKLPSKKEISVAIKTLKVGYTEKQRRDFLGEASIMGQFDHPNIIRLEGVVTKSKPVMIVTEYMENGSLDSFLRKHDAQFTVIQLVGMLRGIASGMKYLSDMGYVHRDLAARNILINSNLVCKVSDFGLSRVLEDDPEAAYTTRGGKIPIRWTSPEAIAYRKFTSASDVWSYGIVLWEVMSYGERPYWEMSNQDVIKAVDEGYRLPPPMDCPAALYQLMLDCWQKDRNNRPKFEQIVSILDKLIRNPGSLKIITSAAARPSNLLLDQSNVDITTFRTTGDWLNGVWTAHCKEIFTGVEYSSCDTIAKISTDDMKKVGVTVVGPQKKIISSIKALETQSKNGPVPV

[14] = molecular target: Tyrosine-protein kinase JAK1 (Homo sapiens, UniProt P23458); test: Selectivity interaction (KinomeScan (DiscoverX)) EUB0000666a JAK1; conditions: at 10 µM
Chain of Tyrosine-protein kinase JAK1 (P23458 whole entry): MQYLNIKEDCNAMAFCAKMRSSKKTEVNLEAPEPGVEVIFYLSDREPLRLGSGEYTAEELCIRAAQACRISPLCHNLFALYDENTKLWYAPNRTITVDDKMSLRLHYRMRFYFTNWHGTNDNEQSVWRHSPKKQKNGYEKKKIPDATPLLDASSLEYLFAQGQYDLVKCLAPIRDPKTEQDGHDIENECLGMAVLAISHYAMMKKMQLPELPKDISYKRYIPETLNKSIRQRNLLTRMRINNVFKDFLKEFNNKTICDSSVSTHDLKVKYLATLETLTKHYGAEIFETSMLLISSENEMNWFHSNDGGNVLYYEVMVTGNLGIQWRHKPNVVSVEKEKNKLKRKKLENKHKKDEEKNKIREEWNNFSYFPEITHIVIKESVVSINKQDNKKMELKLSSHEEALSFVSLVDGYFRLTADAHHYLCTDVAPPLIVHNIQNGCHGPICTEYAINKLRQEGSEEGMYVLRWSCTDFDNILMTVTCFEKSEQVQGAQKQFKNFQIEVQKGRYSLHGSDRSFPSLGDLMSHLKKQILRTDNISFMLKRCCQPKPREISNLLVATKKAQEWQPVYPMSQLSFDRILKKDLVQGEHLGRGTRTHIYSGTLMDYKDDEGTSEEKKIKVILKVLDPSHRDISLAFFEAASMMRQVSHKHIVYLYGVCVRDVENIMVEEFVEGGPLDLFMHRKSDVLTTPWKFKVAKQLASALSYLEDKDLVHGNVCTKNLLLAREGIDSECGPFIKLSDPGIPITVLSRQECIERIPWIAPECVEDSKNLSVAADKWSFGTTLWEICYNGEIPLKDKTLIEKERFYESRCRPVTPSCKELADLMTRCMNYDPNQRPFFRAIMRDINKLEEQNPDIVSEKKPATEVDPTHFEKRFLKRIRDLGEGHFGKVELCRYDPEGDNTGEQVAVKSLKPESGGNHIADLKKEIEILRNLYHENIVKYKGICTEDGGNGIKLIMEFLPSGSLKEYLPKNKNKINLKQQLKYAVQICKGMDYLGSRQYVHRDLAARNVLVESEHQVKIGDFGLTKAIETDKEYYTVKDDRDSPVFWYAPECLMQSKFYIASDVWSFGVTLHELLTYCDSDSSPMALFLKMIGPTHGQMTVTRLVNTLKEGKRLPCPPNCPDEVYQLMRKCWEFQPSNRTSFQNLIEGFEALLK

T2 sequence (P08069 31-736 limits assumed): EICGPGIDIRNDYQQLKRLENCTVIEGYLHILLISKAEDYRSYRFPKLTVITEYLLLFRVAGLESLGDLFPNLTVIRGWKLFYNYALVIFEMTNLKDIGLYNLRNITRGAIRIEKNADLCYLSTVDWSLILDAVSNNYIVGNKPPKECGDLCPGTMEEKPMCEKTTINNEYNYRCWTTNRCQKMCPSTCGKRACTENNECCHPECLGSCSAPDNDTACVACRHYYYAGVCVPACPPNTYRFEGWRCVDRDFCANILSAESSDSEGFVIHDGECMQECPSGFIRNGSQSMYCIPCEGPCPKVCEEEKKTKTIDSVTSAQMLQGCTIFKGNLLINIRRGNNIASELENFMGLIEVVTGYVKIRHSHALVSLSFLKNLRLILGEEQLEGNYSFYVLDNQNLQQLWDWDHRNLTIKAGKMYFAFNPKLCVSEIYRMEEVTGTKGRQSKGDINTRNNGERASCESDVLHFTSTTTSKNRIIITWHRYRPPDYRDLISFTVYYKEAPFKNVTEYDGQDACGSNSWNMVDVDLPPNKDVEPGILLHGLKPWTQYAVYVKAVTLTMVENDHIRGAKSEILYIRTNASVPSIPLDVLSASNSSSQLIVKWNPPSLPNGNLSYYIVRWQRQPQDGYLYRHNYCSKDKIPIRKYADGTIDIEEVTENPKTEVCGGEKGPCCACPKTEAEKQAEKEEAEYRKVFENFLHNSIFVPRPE
T2 sequence (P08069 741-1367 limits assumed): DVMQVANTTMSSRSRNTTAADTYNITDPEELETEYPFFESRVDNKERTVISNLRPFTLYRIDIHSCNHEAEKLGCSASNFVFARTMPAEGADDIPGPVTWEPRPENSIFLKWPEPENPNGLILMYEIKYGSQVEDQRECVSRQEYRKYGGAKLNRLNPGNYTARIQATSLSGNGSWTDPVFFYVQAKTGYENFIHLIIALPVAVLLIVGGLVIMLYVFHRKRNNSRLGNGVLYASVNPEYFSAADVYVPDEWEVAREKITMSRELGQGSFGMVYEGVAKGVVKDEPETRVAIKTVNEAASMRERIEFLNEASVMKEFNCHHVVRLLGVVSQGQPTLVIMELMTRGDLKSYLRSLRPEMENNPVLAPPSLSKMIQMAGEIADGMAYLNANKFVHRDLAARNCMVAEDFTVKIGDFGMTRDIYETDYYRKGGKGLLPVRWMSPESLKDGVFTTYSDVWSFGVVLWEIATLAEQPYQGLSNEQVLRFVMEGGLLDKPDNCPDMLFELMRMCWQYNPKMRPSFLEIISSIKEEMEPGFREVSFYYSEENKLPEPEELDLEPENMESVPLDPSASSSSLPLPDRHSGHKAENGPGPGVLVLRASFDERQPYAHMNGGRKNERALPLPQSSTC
Chain of Serine/threonine-protein kinase MARK2 (Homo sapiens) (Q7KZI7 whole entry): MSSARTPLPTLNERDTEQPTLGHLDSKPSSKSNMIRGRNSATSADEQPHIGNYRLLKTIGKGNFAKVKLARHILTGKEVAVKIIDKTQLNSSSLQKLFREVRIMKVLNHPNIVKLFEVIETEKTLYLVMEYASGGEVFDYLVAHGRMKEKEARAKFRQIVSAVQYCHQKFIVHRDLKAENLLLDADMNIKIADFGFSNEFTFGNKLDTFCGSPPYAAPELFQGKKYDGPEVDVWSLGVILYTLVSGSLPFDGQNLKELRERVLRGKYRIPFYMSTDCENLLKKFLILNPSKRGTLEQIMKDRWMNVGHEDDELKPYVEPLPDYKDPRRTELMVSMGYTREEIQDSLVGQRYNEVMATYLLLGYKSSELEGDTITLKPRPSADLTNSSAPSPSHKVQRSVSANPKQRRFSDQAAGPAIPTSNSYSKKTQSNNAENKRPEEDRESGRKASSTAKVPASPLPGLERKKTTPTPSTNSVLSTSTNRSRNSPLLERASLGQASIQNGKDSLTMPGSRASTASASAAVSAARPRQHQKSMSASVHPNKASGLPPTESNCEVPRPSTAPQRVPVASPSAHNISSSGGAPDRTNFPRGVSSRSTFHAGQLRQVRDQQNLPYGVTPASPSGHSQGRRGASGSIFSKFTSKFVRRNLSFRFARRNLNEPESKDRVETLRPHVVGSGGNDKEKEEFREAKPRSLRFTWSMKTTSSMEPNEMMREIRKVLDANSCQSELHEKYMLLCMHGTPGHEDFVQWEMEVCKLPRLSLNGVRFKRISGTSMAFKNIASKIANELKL
Chain of Eukaryotic translation initiation factor 2-alpha kinase 1 (Homo sapiens) (Q9BQI3 whole entry): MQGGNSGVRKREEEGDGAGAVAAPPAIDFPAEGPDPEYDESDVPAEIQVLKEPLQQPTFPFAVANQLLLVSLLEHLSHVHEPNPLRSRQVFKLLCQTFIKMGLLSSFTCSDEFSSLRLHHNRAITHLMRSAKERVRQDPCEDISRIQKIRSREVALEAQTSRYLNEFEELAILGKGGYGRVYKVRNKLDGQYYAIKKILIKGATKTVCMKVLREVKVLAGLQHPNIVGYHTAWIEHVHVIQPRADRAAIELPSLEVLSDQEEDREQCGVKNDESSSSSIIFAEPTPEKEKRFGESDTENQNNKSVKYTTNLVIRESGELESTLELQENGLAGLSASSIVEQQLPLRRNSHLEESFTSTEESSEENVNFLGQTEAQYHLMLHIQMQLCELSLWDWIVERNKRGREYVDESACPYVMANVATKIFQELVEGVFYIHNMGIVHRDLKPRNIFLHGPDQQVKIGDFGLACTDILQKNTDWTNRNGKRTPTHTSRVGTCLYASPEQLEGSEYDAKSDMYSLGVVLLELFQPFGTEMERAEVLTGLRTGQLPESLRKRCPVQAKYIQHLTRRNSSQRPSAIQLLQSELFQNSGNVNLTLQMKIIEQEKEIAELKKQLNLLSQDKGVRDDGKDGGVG
Chain of MAP kinase-interacting serine/threonine-protein kinase 2 (Q9HBH9 whole entry, looked up): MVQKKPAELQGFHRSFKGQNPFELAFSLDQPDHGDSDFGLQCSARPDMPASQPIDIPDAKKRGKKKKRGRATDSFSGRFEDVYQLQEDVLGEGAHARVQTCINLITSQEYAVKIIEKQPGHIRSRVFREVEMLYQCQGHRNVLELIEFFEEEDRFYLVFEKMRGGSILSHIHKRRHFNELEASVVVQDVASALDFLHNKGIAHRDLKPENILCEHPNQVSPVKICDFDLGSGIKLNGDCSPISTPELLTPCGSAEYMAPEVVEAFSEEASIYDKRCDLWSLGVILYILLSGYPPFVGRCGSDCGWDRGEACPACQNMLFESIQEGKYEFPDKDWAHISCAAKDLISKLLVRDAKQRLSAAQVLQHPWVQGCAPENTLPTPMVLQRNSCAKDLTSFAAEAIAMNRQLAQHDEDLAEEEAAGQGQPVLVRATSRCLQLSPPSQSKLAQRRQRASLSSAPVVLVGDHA
Chain of Interferon-induced, double-stranded RNA-activated protein kinase (Homo sapiens) (P19525 whole entry): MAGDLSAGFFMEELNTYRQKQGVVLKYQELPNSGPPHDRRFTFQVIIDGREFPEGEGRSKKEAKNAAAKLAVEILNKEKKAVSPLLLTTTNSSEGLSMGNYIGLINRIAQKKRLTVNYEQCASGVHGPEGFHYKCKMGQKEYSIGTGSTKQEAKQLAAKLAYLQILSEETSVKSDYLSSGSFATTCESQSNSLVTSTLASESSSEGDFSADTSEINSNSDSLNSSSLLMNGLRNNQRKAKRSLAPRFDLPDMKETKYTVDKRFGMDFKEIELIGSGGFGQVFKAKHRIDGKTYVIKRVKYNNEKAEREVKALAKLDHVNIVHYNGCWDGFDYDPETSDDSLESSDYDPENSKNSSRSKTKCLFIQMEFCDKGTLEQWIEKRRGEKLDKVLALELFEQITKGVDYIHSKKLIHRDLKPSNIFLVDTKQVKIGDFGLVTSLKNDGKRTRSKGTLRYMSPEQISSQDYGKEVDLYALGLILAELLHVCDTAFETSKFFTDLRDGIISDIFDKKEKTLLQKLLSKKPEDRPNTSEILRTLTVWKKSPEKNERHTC

Cc1cc([C@@H](C)Nc2ccccc2C(=O)O)c2nc(N3CCOCC3)cc(=O)n2c1 [AZD-6482]
% of control [1]: 97%

COc1cc(Nc2nc(C)cc(-c3cnn4nc(OC)ccc34)n2)cc(C(F)(F)F)c1
% of control [2]: 90%
% of control [3]: 96%

CC[C@@H]1[C@H](F)C(=O)N[C@@H]1COc1nccc2cc(C(N)=O)c(OC)cc12 [ZIMLOVISERTIB]
% of inhibition [4]: 0.7%
% of inhibition [5]: 4.9%

Cc1cc(F)c(C(=O)Nc2cccc(-c3nncn3C(C)C)n2)cc1-n1cnc(C2CC2)c1
% of control [6]: 100%

Nc1cnc(N2CCc3cc(S(=O)(=O)Nc4c(F)cc(Cl)cc4F)cc(N4CCCC4=O)c32)nc1 [TP-020n]
% of control [7]: 71%

CCC(=O)N1CCN(c2ccc(-n3c(=O)ccc4cnc5ccc(-c6cnc7ccccc7c6)cc5c43)cc2C(F)(F)F)CC1
% of control [8]: 54%

CN(C)CCOc1ccc(-c2nc(-c3ccncc3)c(-c3ccc4c(c3)CC/C4=N\O)[nH]2)cc1
% of control [9]: 100%

N#Cc1cccc(-c2c[nH]c3ncnc(N4CCOCC4)c23)c1
% of inhibition [10]: 2%

O[C@H]1CC[C@H](Nc2ncc3nc(Nc4c(F)cc(F)cc4F)n([C@H]4CCOC4)c3n2)CC1
% of control [11]: 90%

CNC(=O)Nc1ccc(-c2nc(N3CC4CCC(C3)O4)c3cnn(C4CCC5(CC4)OCCO5)c3n2)cc1
% of inhibition [12]: 1%
% of control [13]: 100%

O=C(NOC[C@H](O)CO)c1ccc(F)c(F)c1Nc1ccc(I)cc1F
% of control [14]: 100%
